Laboratory results from US10738041B2, “Ferroportin inhibitors” (Vifor (International) AG, priority 2015, dated 2020).
pEC50, pIC50: −log10 of the molar value.

Assays:
[1] = target: T1, human Fpn-GFP fusion (Homo sapiens, UniProt Q9NP59); assay: Inhibition of ferroportin mediated iron export activity in an iron response assay (BLAzer); assay type: cell-based; details: average of multiple measurements; HEK-293 cell line #354; read-out: BLAzer EC50
T1 construct: expressed in transfected cells; host or cells: HEK-293 cell line #354 (derivative of HEK-293 Tet-ON Advanced, Clontech)
T1 sequence (Q9NP59 1-571): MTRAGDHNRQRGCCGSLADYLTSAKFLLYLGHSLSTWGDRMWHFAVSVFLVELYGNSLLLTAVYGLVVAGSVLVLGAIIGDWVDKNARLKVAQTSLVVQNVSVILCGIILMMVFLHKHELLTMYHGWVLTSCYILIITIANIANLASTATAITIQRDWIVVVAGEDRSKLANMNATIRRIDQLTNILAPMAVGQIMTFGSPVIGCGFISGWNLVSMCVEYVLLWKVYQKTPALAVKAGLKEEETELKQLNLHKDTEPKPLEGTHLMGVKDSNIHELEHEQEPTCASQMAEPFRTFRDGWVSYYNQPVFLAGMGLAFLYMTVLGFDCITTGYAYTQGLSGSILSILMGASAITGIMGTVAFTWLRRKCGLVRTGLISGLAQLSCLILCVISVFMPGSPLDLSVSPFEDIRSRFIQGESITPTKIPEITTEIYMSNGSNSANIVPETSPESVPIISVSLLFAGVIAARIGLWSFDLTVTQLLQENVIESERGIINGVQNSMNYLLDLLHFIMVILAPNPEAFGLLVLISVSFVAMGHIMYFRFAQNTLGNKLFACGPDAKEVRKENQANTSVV
Method in brief: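 HEK-293 Tet-ON line with doxycycline-inducible Fpn-GFP and a ferritin promoter/IRE-BLA reporter was treated overnight at 37° C with compound dilutions in quadruplicate.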

[2] = target: T2, human Fpn (Homo sapiens, UniProt Q9NP59); assay: Biophysical Ferroportin-Hepcidin Binding Assay (fluorescence polarization); details: average of multiple measurements; 1 μM human Fpn, 20 nM TMR-hepcidin; read-out: FP IC50
T2 construct: FLAG (C); made in house; host or cells: Pichia pastoris
T2 sequence (Q9NP59 1-571): T1 sequence (Q9NP59 1-571)
Method in brief: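 FP readout: a dose-dependent drop in TMR-hepcidin polarization (mP, from parallel and perpendicular emission) marked blocked binding to FLAG-tagged human Fpn purified from Pichia pastoris. Final levels were 1 μM Fpn and 20 nM TMR-hepcidin, with compound dilutions in duplicate, incubated 90 min at room temperature.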

[3] = target: T1, human Fpn-GFP fusion; assay: Ferroportin Internalization and Degradation Assay (FACS); assay type: cell-based; details: average of multiple measurements; Fpn-GFP MFI, HEK-293 cell line #354, FACS
Description: Growing HEK-293 #354 cells in doxycycline containing media induced expression of human Fpn-GFP fusion protein on the cell surface. […] Small molecular weight Fpn inhibitor compounds were tested for dose-dependent effects on the Fpn-GFP mean fluorescence intensity (MFI) on HEK-293 cell line #354, as described below. HEK #354 cells were harvested from ca. 80% confluent cultures, seeded at 0.6×10^6 (cells/ml in DMEM/F12 GlutaMAX™ medium (Invitrogen, Cat. 31331-028) containing 10% FBS (Clontech, Cat. 631106), 1% Penicillin-Streptomycin (Invitrogen, Cat. 15140-122), 200 μg/ml Hygromycin B (Invitrogen, Cat. 10687-010), Blasticidin 5 μg/ml, (Invitrogen, Cat. R210-01), 4 μg/ml doxycycline (Clontech, Cat. 631311), 50 μl per well of 384 well plates (Greiner; Cat. 781091) and grown at 37° C. with 5% CQ. After overnight incubation, 10 μl/well of dilution series of the test compounds were added in quadruplicates and plates were further incubated overnight at 37° C. with 5% CO2. Cells were washed once with FACS buffer (PBS containing 1% FBS, 2 mM EDTA and 0.05% NaN3), harvested in FACS buffer with 0.5 μg/ml propidium iodide (Sigma, Cat. P4864) and analyzed in a flow cytometer (CANTO™ II, BD Biosciences) equipped with high throughput sampler. Live HEK #354 cells were gated as propidium iodide negative population and analyzed for expression of Fpn-GFP.

Row | SMILES | pEC50 [1] | pIC50 [2] | pEC50 [3]
1 | O=C(NCc1ncccc1F)c1csc(CCNCCc2nc3ccccc3[nH]2)n1 [Example 94] | 6.28 | 7.36 | 6.66
2 | O=C(NCc1ncccc1F)c1cnn(CCNCCc2nc3ccccc3[nH]2)c1 [Example 111] | 6.21 | 7.29 | 7.12
